From ChEMBL document CHEMBL1143607, “Pyridinium-1-yl bisphosphonates are potent inhibitors of farnesyl diphosphate synthase and bone resorption” (J Med Chem, 2005) come the findings set out here.

The term pIC50 denotes the negative decadic logarithm of the IC50, by convention in mol/L. High values mean a low IC50, low ones a high IC50. The term pEC50 denotes the negative decadic logarithm of the EC50, by convention in mol/L. A low value points to a large EC50.

pEC50, pIC50: −log10 of the molar value.

One test deals with Dictyostelium discoideum. The experiment in a line: Inhibitory concentration against Dictyostelium discoideum cell growth. The class given is functional, organism-based, Fungi.
The nature of test [1]: Effective concentration against human Gamma delta T cells. The note with it: t-cell. The class given is functional, cell-based.
A further test is filed under the species Mus musculus. Put plainly: In vitro inhibitory concentration against bone resorption in 17 day old fetal mouse metatarsals. The class given is functional.

In the test on Dictyostelium discoideum, `O=P([O-])(O)C(O)(C[n+]1ccc(Cc2ccccc2)cc1)P(=O)(O)O` (stereo unspecified) showed a pIC50 of 4.92. Also, the pEC50 in test [1] was 3.82.

Turning to `O=P([O-])(O)C(O)(C[n+]1ccccc1)P(=O)(O)O` (stereo unspecified), the values for the pIC50 in the test filed under Mus musculus and in the test with Dictyostelium discoideum were 6.17 and 5.68, respectively. The pEC50 in test [1] was 5.32.

In the test on Dictyostelium discoideum, `CCc1ccc[n+](CC(O)(P(=O)([O-])O)P(=O)(O)O)c1` (stereo unspecified) showed a pIC50 of 5.25. The same compound gave a pEC50 in test [1] of 5.36.

For `O=P([O-])(O)C(O)(C[n+]1cccc(-c2ccccc2)c1)P(=O)(O)O` (stereo unspecified), the pIC50 in the test filed under Mus musculus is 6.39; in the test on Dictyostelium discoideum it was 5.42. In test [1], this compound showed a pEC50 of 5.39.

`Cc1cccc(Cc2ccc[n+](CC(O)(P(=O)([O-])O)P(=O)(O)O)c2)c1` (stereo unspecified) showed a pIC50 in the test on Dictyostelium discoideum of 5.04. In test [1], this compound showed a pEC50 of 4.36.

As for `O=P([O-])(O)C(O)(C[n+]1cccc2cc(Cl)ccc21)P(=O)(O)O` (stereo unspecified), the pIC50 in the test with Dictyostelium discoideum was 4.14. In test [1], this compound had a pEC50 of 4.25.

Take `Nc1c[n+](CC(P(=O)([O-])O)P(=O)(O)O)ccn1` (stereo unspecified): the negative-log IC50 (pIC50) in the test listed under Mus musculus was 6.66.

As to `Cc1ccc[n+](CC(O)(P(=O)([O-])O)P(=O)(O)O)c1` (stereo unspecified), the pIC50 in the test filed under Mus musculus was 6.66; with Dictyostelium discoideum, 5.82. In addition, the pEC50 in test [1] was 5.35.

With `O=P([O-])(O)C(O)(C[n+]1cccc(-c2ccc(O)cc2)c1)P(=O)(O)O` (stereo unspecified), in the test on Dictyostelium discoideum, the pIC50 is 5.54. In test [1], this compound had a negative logarithm of the EC50 (pEC50) of 5.60.

Take `O=P([O-])(O)C(O)(C[n+]1cccc(F)c1)P(=O)(O)O` (stereo unspecified): the pIC50 in the test filed under Mus musculus is 7.12; with Dictyostelium discoideum, 5.34. Moreover, the pEC50 in test [1] is 5.57.

Turning to `COc1ccc[n+](CC(O)(P(=O)([O-])O)P(=O)(O)O)c1` (stereo unspecified), the pIC50 in the test filed under Mus musculus is 6.43; with Dictyostelium discoideum, 5.22. In test [1], this compound had a pEC50 of 5.03.

In turn, `O=P([O-])(O)C(O)(C[n+]1cccc(Cc2ccccc2)c1)P(=O)(O)O` (stereo unspecified) gave a pIC50 with Dictyostelium discoideum of 4.96. The same compound showed a pEC50 in test [1] of 4.04.

With `CCCCc1ccc[n+](CC(O)(P(=O)([O-])O)P(=O)(O)O)c1` (stereo unspecified), in the test with Dictyostelium discoideum, the negative logarithm of the IC50 (pIC50) is 5.54. In test [1], this compound had a pEC50 of 5.37.

In the test on Dictyostelium discoideum, `O=P([O-])(O)C(O)(C[n+]1ccc2ccccc2c1)P(=O)(O)O` (stereo unspecified) gave a pIC50 of 4.70. The compound also gave a pEC50 in test [1] of 4.52.

Turning to `NCCCC(O)(P(=O)(O)O)P(=O)(O)O` [ALENDRONIC ACID], the pIC50 in the test listed under Mus musculus is 6.54. The compound also showed a pEC50 in test [1] of 4.49.

For `NCCC(O)(P(=O)(O)O)P(=O)(O)O` [PAMIDRONIC ACID], in the test filed under Mus musculus, the pIC50 was 5.80. Further, the pEC50 in test [1] was 4.37.

The compound `O=P(O)(O)C(O)(Cc1cccnc1)P(=O)(O)O` [RISEDRONIC ACID] gave a pIC50 in the test listed under Mus musculus of 6.52. In addition, the pEC50 in test [1] was 5.30.

With `O=P(O)(O)C(O)(Cn1ccnc1)P(=O)(O)O` [ZOLEDRONIC ACID], the pIC50 is 7.47 in the test filed under Mus musculus and 5.54 with Dictyostelium discoideum. The same compound showed a pEC50 in test [1] of 5.27.
